# Results as given in patent publication US20240317735A1, “HYDROISOQUINOLINE OR HYDRONAPHTHYRIDINE COMPOUNDS FOR THE TREATMENT OF AUTOIMMUNE DISEASE” (Hoffmann-La Roche Inc., priority 2020, published 2024).
# Key:
# [1] = target: T1, TLR9 (Homo sapiens, UniProt Q9NR96); assay: HEK293-Blue-hTLR-9 cells assay (SEAP reporter, ODN2006 stimulation); type: cell-based; parameters: host or cells: HEK293 (HEK-Blue hTLR9); settings: HEK293-Blue-hTLR9 cells, ODN2006, 20 hrs; read-out: HEK/hTLR9 IC50
# T1 sequence (Q9NR96 26-1032): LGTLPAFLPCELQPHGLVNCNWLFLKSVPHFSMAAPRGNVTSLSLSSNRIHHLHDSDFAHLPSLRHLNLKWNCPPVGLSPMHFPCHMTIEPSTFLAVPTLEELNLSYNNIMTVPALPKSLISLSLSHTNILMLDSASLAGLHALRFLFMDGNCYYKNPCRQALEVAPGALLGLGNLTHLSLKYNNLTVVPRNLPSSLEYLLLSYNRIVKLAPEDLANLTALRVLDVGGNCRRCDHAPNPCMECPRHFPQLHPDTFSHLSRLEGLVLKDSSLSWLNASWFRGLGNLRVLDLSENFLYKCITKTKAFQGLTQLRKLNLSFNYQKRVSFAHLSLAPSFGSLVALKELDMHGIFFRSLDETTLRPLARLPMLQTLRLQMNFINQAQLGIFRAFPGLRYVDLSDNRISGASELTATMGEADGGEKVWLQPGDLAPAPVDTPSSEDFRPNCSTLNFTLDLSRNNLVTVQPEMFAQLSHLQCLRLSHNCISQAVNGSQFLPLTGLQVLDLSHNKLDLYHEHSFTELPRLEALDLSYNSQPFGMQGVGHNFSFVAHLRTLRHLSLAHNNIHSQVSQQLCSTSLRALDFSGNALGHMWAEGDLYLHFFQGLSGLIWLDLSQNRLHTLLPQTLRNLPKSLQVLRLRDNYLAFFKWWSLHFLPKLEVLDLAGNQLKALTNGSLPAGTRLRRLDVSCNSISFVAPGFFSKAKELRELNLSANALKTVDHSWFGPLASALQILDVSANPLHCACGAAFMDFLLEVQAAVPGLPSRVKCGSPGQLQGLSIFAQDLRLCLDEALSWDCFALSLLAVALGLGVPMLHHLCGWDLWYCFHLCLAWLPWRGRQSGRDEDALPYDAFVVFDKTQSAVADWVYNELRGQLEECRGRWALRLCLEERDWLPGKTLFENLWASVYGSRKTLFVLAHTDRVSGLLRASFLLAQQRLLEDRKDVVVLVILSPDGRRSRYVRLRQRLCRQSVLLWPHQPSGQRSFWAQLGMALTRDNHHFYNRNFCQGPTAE
# Procedure, shortened: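 Antagonist format: cells in DMEM/10% FBS exposed to serially diluted compound (1% DMSO) plus ODN2006 stimulation for 20 h at 37°C. Supernatant SEAP measured with QUANTI-Blue substrate, 2 h at 37°C, absorbance 620–655 nm.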
# [2] = Human microsome stability assay; type: in vitro ADME; settings: 1 μM test compound, 0.5 mg/mL liver microsomal protein, 37° C., pH 7.4
# Procedure, shortened: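 1 μM compound with 0.5 mg/mL human liver microsomes in 100 mM potassium phosphate pH 7.4, 37° C, started with NADPH-regenerating system after 10 min preincubation. Sampled at 0, 3, 6, 9, 15, 30 min, quenched in acetonitrile; parent remaining by LC-MS/MS, with no-NADPH controls.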
structure (smiles),measurement,setting,value
"Cc1cc(N2Cc3ccc(N4CCC(O)(CN(C)C)CC4)cc3[C@@H](C)C2)c2cnn(C)c2n1 [Example 14, 4-[(dimethylamino)methyl]-1-[(4R)-2-(1,6-dimethylpyrazolo[3,4-b]pyridin-4-yl)-4-methyl-3,4-dihydro-1H-isoquinolin-6-yl]piperidin-4-ol]",IC50,[1],158 nM
same,Clearance of Human microsome,[2],6.2 mL/min/kg
"Cc1cc(N2Cc3ccc(N4CC5(CNCCO5)C4)cc3[C@@H](C)C2)c2cnn(C)c2n1 [Example 48, 2-[(4R)-2-(1,6-dimethylpyrazolo[3,4-b]pyridin-4-yl)-4-methyl-3,4-dihydro-1H-isoquinolin-6-yl]-5-oxa-2,8-diazaspiro[3.5]nonane]",IC50,[1],229 nM
same,Clearance of Human microsome,[2],7.2 mL/min/kg
"CO[C@@H]1CN(c2ccc3c(c2)[C@@H](C)CN(c2cc(C)nc4c2cnn4C)C3)C[C@H]1N [Example 23, (3R,4R)-4-methoxy-1-[(4R)-2-(1,6-dimethylpyrazolo[3,4-b]pyridin-4-yl)-4-methyl-3,4-dihydro-1H-isoquinolin-6-yl]pyrrolidin-3-amine]",IC50,[1],115 nM
same,Clearance of Human microsome,[2],7.5 mL/min/kg
"C[C@H]1CN(c2ccnc3c2cnn3C)Cc2ccc(OC[C@@H]3CNCCN3C=O)cc21 [Example 45, (2S)-2-[[(4R)-4-methyl-2-(1-methylpyrazolo[3,4-b]pyridin-4-yl)-3,4-dihydro-1H-isoquinolin-6-yl]oxymethyl]piperazine-1-carbaldehyde]",IC50,[1],350 nM
same,Clearance of Human microsome,[2],10.4 mL/min/kg
"C[C@H]1CN(c2ccnc3c2cnn3C)Cc2ccc(OC[C@H]3CNCCN3)cc21 [Example 18, (4R)-4-methyl-2-(1-methylpyrazolo[3,4-b]pyridin-4-yl)-6-[[(2R)-piperazin-2-yl]methoxy]-3,4-dihydro-1H-isoquinoline]",IC50,[1],111 nM
same,Clearance of Human microsome,[2],10.5 mL/min/kg
"CO[C@@H]1CN(c2cc3c(cn2)CN(c2cc(C)nc4c2cnn4C)C[C@@H]3C)C[C@H]1N [Example 78, (3R,4R)-4-methoxy-1-[(5R)-7-(1,6-dimethylpyrazolo[3,4-b]pyridin-4-yl)-5-methyl-6,8-dihydro-5H-2,7-naphthyridin-3-yl]pyrrolidin-3-amine]",IC50,[1],335 nM
same,Clearance of Human microsome,[2],6.9 mL/min/kg
"Cc1cc(N2Cc3ccc(N4CCNCC4)cc3[C@@H](C)C2)c2cnn(C)c2n1 [Example 2, (4R)-2-(1,6-dimethylpyrazolo[3,4-b]pyridin-4-yl)-4-methyl-6-piperazin-1-yl-3,4-dihydro-1H-isoquinoline]",IC50,[1],86 nM
same,Clearance of Human microsome,[2],9.0 mL/min/kg
"Cc1cc(N2Cc3cnc(O[C@@H]4C[C@H]5CNCCN5C4)cc3[C@@H](C)C2)c2cnn(C)c2n1 [Example 76, (4R)-2-(1,6-dimethylpyrazolo[3,4-b]pyridin-4-yl)-4-methyl-6-[[(7R,8aS)-1,2,3,4,6,7,8,8a-octahydropyrrolo[1,2-a]pyrazin-7-yl]oxy]-3,4-dihydro-1H-2,7-naphthyridine]",IC50,[1],144 nM
same,Clearance of Human microsome,[2],6.2 mL/min/kg
"C[C@H]1CN(c2ccnc3c2cnn3C)Cc2ccc(N3CCN(C(=O)C4CCCN4)CC3)cc21 (stereo partly drawn) [Example 8, pyrrolidin-2-yl-[4-[(4R)-4-methyl-2-(1-methylpyrazolo[3,4-b]pyridin-4-yl)-3,4-dihydro-1H-isoquinolin-6-yl]piperazin-1-yl]methanone]",IC50,[1],140 nM
same,Clearance of Human microsome,[2],7.0 mL/min/kg
"Cc1cc(N2Cc3ccc(N4CCC(N)CC4)nc3[C@@H](C)C2)c2cnn(C)c2n1 [Example 58, 1-[(8S)-6-(1,6-dimethylpyrazolo[3,4-b]pyridin-4-yl)-8-methyl-7,8-dihydro-5H-1,6-naphthyridin-2-yl]piperidin-4-amine]",IC50,[1],199 nM
same,Clearance of Human microsome,[2],9.0 mL/min/kg
"C[C@H]1CN(c2ccnc3c2cnn3C)Cc2ccc(N3CCN(C(=O)C4CCNCC4)CC3)cc21 [Example 7, 4-piperidyl-[4-[(4R)-4-methyl-2-(1-methylpyrazolo[3,4-b]pyridin-4-yl)-3,4-dihydro-1H-isoquinolin-6-yl]piperazin-1-yl]methanone]",IC50,[1],104 nM
same,Clearance of Human microsome,[2],10.3 mL/min/kg
"C[C@H]1CN(c2ccnc3c2cnn3C)Cc2ccc(N3CCC(N4CC(N)C4)CC3)cc21 [Example 28, 1-[1-[(4R)-4-methyl-2-(1-methylpyrazolo[3,4-b]pyridin-4-yl)-3,4-dihydro-1H-isoquinolin-6-yl]-4-piperidyl]azetidin-3-amine]",IC50,[1],150 nM
same,Clearance of Human microsome,[2],6.2 mL/min/kg
"C[C@H]1CN(c2ccnc3c2cnn3C)Cc2ccc(N3C[C@@H]4CCNCC4C3=O)cc21 (relative stereo) [Example 55, cis-2-[(4R)-4-methyl-2-(1-methylpyrazolo[3,4-b]pyridin-4-yl)-3,4-dihydro-1H-isoquinolin-6-yl]-3a,4,5,6,7,7a-hexahydro-1H-pyrrolo[3,4-c]pyridin-3-one]",IC50,[1],137 nM
same,Clearance of Human microsome,[2],8.2 mL/min/kg
"C[C@H]1CN(c2ccnc3c2cnn3C)Cc2ccc(N3CC4(CNCCO4)C3)cc21 [Example 21, 2-[(4R)-4-methyl-2-(1-methylpyrazolo[3,4-b]pyridin-4-yl)-3,4-dihydro-1H-isoquinolin-6-yl]-5-oxa-2,8-diazaspiro[3.5]nonane]",IC50,[1],372 nM
same,Clearance of Human microsome,[2],10.1 mL/min/kg
"C[C@H]1CN(c2ccnc3c2cnn3C)Cc2ccc(N3CCN(CCN(C)C)CC3)cc21 [Example 38, N,N-dimethyl-2-[4-[(4R)-4-methyl-2-(1-methylpyrazolo[3,4-b]pyridin-4-yl)-3,4-dihydro-1H-isoquinolin-6-yl]piperazin-1-yl]ethanamine]",IC50,[1],147 nM
same,Clearance of Human microsome,[2],6.2 mL/min/kg
"CO[C@@H]1CN(c2ccc3c(c2)[C@@H](C)CN(c2ccnc4c2cnn4C)C3)C[C@H]1N [Example 20, (3R,4R)-4-methoxy-1-[(4R)-4-methyl-2-(1-methylpyrazolo[3,4-b]pyridin-4-yl)-3,4-dihydro-1H-isoquinolin-6-yl]pyrrolidin-3-amine]",IC50,[1],239 nM
same,Clearance of Human microsome,[2],10.2 mL/min/kg
"C[C@H]1CN(c2ccnc3c2cnn3C)Cc2ccc(N3CCN[C@@H](CO)C3)cc21 [Example 50, [(2R)-4-[(4R)-4-methyl-2-(1-methylpyrazolo[3,4-b]pyridin-4-yl)-3,4-dihydro-1H-isoquinolin-6-yl]piperazin-2-yl]methanol]",IC50,[1],376 nM
same,Clearance of Human microsome,[2],6.2 mL/min/kg
"C[C@H]1CN(c2ccnc3c2cnn3C)Cc2ccc(N3CCNCC3)nc21 [Example 62, (8S)-8-methyl-6-(1-methylpyrazolo[3,4-b]pyridin-4-yl)-2-piperazin-1-yl-7,8-dihydro-5H-1,6-naphthyridine]",IC50,[1],264 nM
same,Clearance of Human microsome,[2],6.8 mL/min/kg
"C[C@H]1CN(c2ccnc3c2cnn3C)Cc2ccc(N3C[C@@H](N)[C@H](O)C3)cc21 [Example 46, trans-4-amino-1-[(4R)-4-methyl-2-(1-methylpyrazolo[3,4-b]pyridin-4-yl)-3,4-dihydro-1H-isoquinolin-6-yl]pyrrolidin-3-ol]",IC50,[1],360 nM
same,Clearance of Human microsome,[2],6.2 mL/min/kg
"C[C@H]1CN(c2ccnc3c2cnn3C)Cc2ccc(N3CCNCC3)cc21 [Example 1, (4R)-4-methyl-2-(1-methylpyrazolo[3,4-b]pyridin-4-yl)-6-piperazin-1-yl-3,4-dihydro-1H-isoquinoline]",IC50,[1],198 nM
same,Clearance of Human microsome,[2],6.2 mL/min/kg
"C[C@H]1CN(c2ccnc3c2cnn3C)Cc2ccc(OC[C@H]3CNCCN3C)cc21 [Example 43, (4R)-4-methyl-2-(1-methylpyrazolo[3,4-b]pyridin-4-yl)-6-[[(2R)-1-methylpiperazin-2-yl]methoxy]-3,4-dihydro-1H-isoquinoline]",IC50,[1],242 nM
same,Clearance of Human microsome,[2],6.2 mL/min/kg
"Cc1cc(N2Cc3ccc(N4CCN(C)CC4)nc3[C@@H](C)C2)c2cnn(C)c2n1 [Example 67, (8S)-6-(1,6-dimethylpyrazolo[3,4-b]pyridin-4-yl)-8-methyl-2-(4-methylpiperazin-1-yl)-7,8-dihydro-5H-1,6-naphthyridine]",IC50,[1],282 nM
same,Clearance of Human microsome,[2],10.5 mL/min/kg
